Laboratory results from patent US9169260B2 (MERCK SHARP & DOHME CORP., priority 2011, dated 2015).

Target: GST tagged IRAK-4 (Homo sapiens (Human), UniProt Q9NWZ3)
Experiment: IRAK-4 Kinase Assay (IMAP fluorescence polarization)
Type: biochemical
Conditions: 100 μM ATP, 30 minutes at 25° C.
How it was run: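 Activity was read by IMAP fluorescence polarization, where phosphopeptide binding to M(III) nanoparticles raises FP. The 30-minute, 25° C reaction used 100 μM ATP, 100 nM RP7030 substrate and 0.5 nM GST-IRAK-4 in pH 7.2 Tris buffer with MgCl2, DTT and Tween 20.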

GST tagged IRAK-4, sequence (Q9NWZ3 whole entry): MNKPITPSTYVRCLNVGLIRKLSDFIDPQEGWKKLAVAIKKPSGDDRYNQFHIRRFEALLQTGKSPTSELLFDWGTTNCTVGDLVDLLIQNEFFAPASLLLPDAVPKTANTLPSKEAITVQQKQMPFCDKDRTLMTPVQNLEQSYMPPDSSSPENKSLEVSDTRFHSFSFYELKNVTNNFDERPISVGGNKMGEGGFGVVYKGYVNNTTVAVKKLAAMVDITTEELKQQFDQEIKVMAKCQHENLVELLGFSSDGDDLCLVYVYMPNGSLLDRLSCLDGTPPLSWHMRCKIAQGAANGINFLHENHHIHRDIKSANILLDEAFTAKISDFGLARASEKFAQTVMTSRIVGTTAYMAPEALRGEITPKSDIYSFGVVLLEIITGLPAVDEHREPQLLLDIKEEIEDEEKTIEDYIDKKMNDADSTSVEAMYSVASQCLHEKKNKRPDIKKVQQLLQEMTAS

SMILES | IC50 [µM]
Cc1ccc(-n2nc(C3CN(Cc4cn[nH]c4)C3)cc2NC(=O)c2cnn3cccnc23)cc1 [Example 305, N-{1-(4-methylphenyl)-3-[1-(1H-pyrazol-4-ylmethyl)azetidin-3-yl]-1H-pyrazol-5-yl}pyrazolo[1,5-a]pyrimidine-3-carboxamide] | < 0.1
Cc1ccc(-n2nc(C3CN(Cc4cncs4)C3)cc2NC(=O)c2cnn3cccnc23)cc1 [Example 312, N-{1-(4-methylphenyl)-3-[1-(1,3-thiazol-5-ylmethyl)azetidin-3-yl]-1H-pyrazol-5-yl}pyrazolo[1,5-a]pyrimidine-3-carboxamide] | < 0.1
COc1ncccc1CN1CC(c2cc(NC(=O)c3cnn4cccnc34)n(-c3ccc(C)cc3)n2)C1 [Example 313, N-[3-{1-[(2-methoxypyridin-3-yl)methyl]azetidin-3-yl}-1-(4-methylphenyl)-1H-pyrazol-5-yl]pyrazolo[1,5-a]pyrimidine-3-carboxamide] | < 0.1
Cc1ccc(-n2nc(C3CN(Cc4cccnc4)C3)cc2NC(=O)c2cnn3cccnc23)cc1 [Example 314, N-{1-(4-methylphenyl)-3-[1-(pyridin-3-ylmethyl)azetidin-3-yl]-1H-pyrazol-5-yl}pyrazolo[1,5-a]pyrimidine-3-carboxamide] | < 0.1
COc1cccc(CN2CC(c3cc(NC(=O)c4cnn5cccnc45)n(-c4ccc(C)cc4)n3)C2)n1 [Example 315, N-[3-{1-[(6-methoxypyridin-2-yl)methyl]azetidin-3-yl}-1-(4-methylphenyl)-1H-pyrazol-5-yl]pyrazolo pyrimidine-3-carboxamide] | < 0.1

Continued, values first:

IC50 [µM] | SMILES
< 0.1 | Cc1ccc(-n2nc(C3CCN(C4CCCC(C)C4)CC3)cc2NC(=O)c2cnn3cccnc23)nc1 (stereo not shown) [Example 277, N-{3-[1-(3-methylcyclohexyl)piperidin-4-yl]-1-(5-methylpyridin-2-yl)-1H-pyrazol-5-yl}pyrazolo[1,5-a]pyrimidine-3-carboxamide]
< 0.1 | CCN1CCC(N2CCC(c3cc(NC(=O)c4cnn5cccnc45)n(-c4ccc(C)cn4)n3)CC2)CC1 [Example 279, N-[3-(1′-ethyl-1,4′-bipiperidin-4-yl)-1-(5-methylpyridin-2-yl)-1H-pyrazol-5-yl]pyrazolo[1,5-a]pyrimidine-3-carboxamide]
< 0.1 | CCCN1CCC(c2cc(NC(=O)c3cnn4cccnc34)n(-c3ccc(C)cn3)n2)CC1 [Example 280, N-[1-(5-methylpyridin-2-yl)-3-(1-propylpiperidin-4-yl)-1H-pyrazol-5-yl]pyrazolo[1,5-a]pyrimidine-3-carboxamide]
< 0.1 | Cc1ccc(-n2nc(C3CCN(CC4CC4)CC3)cc2NC(=O)c2cnn3cccnc23)nc1 [Example 281, N-{3-[1-(cyclopropylmethyl)piperidin-4-yl]-1-(5-methylpyridin-2-yl)-1H-pyrazol-5-yl}pyrazolo[1,5-a]pyrimidine-3-carboxamide]
< 0.1 | Cc1ccc(-n2nc(C3CCN(C4Cc5ccccc5C4)CC3)cc2NC(=O)c2cnn3cccnc23)nc1 [Example 282, N-{3-[1-(2,3-dihydro-1H-inden-2-yl)piperidin-4-yl]-1-(5-methylpyridin-2-yl)-1H-pyrazol-5-yl}pyrazolo[1,5-a]pyrimidine-3-carboxamide]
< 0.1 | Cc1ccc(-n2nc(N3CCN(C4CCCCC4)CC3)cc2NC(=O)c2cnn3cccnc23)nc1 [Example 319, N-[3-(4-cyclohexylpiperazin-1-yl)-1-(5-methylpyridin-2-yl)-1H-pyrazol-5-yl]pyrazolo[1,5-a]pyrimidine-3-carboxamide]
< 0.1 | Cc1ccc(-n2nc(N3CCN(C4CCC4)CC3)cc2NC(=O)c2cnn3cccnc23)nc1 [Example 320, N-[3-(4-cyclobutylpiperazin-1-yl)-1-(5-methylpyridin-2-yl)-1H-pyrazol-5-yl]pyrazolo[1,5-a]pyrimidine-3-carboxamide]
< 0.1 | Cc1ccc(-n2nc(N3CCN(C4CCOCC4)CC3)cc2NC(=O)c2cnn3cccnc23)nc1 [Example 321, N-{1-(5-methylpyridin-2-yl)-3-[4-(tetrahydro-2H-pyran-4-yl)piperazin-1-yl]-1H-pyrazol-5-yl}pyrazolo[1,5-a]pyrimidine-3-carboxamide]
< 0.1 | Cc1ccc(-n2nc(N3CCN(C4CCCCCC4)CC3)cc2NC(=O)c2cnn3cccnc23)nc1 [Example 322, N-[3-(4-cycloheptylpiperazin-1-yl)-1-(5-methylpyridin-2-yl)-1H-pyrazol-5-yl]pyrazolo[1,5-a]pyrimidine-3-carboxamide]
< 0.1 | Cc1ccc(-n2nc(N3CCN(C4CCCC4)CC3)cc2NC(=O)c2cnn3cccnc23)nc1 [Example 323, N-[3-(4-cyclopentylpiperazin-1-yl)-1-(5-methylpyridin-2-yl)-1H-pyrazol-5-yl]pyrazolo[1,5-a]pyrimidine-3-carboxamide]
< 0.1 | Cc1ccc(-n2nc(N3CCN(CC(C)C)CC3)cc2NC(=O)c2cnn3cccnc23)nc1 [Example 324, N-{3-[4-(2-methylpropyl)piperazin-1-yl]-1-(5-methylpyridin-2-yl)-1H-pyrazol-5-yl}pyrazolo[1,5-a]pyrimidine-3-carboxamide]
< 0.1 | Cc1ccc(-n2nc(C3CCN(C4CCCC4)CC3)cc2NC(=O)c2cnn3cccnc23)cc1 [Example 325, N-(3-(1-cyclopentylpiperidin-4-yl)-1-(p-tolyl)-1H-pyrazol-5-yl)pyrazolo[1,5-a]pyrimidine-3-carboxamide]

Same assay, conditions: 100 μM ATP, 30 minutes at 25° C.; μM

SMILES | IC50 [µM]
Cc1ccc(-n2nc(C3CCCN(Cc4cncs4)C3)cc2NC(=O)c2cnn3cccnc23)cc1 (stereo not shown) [Example 284, N-{1-(4-methylphenyl)-3-[1-(1,3-thiazol-5-ylmethyl)piperidin-3-yl]-1H-pyrazol-5-yl}pyrazolo[1,5-a]pyrimidine-3-carboxamide] | < 1
Cc1ccc(-n2nc(C3CN(Cc4cnccn4)C3)cc2NC(=O)c2cnn3cccnc23)cc1 [Example 304, N-{1-(4-methylphenyl)-3-[1-(pyrazin-2-ylmethyl)azetidin-3-yl]-1H-pyrazol-5-yl}pyrazolo[1,5-a]pyrimidine-3-carboxamide] | < 1
Cc1ccc(-n2nc(C3CN(Cc4ccn[nH]4)C3)cc2NC(=O)c2cnn3cccnc23)cc1 [Example 306, N-{1-(4-methylphenyl)-3-[1-(1H-pyrazol-5-ylmethyl)azetidin-3-yl]-1H-pyrazol-5-yl}pyrazolo[1,5-a]pyrimidine-3-carboxamide] | < 1
Cc1ccc(-n2nc(C3CN(Cc4nccs4)C3)cc2NC(=O)c2cnn3cccnc23)cc1 [Example 307, N-{1-(4-methylphenyl)-3-[1-(1,3-thiazol-2-ylmethyl)azetidin-3-yl]-1H-pyrazol-5-yl}pyrazolo[1,5-a]pyrimidine-3-carboxamide] | < 1
Cc1ccc(-n2nc(C3CN(Cc4ccccn4)C3)cc2NC(=O)c2cnn3cccnc23)cc1 [Example 308, N-{1-(4-methylphenyl)-3-[1-(pyridin-2-ylmethyl)azetidin-3-yl]-1H-pyrazol-5-yl}pyrazolo[1,5-a]pyrimidine-3-carboxamide] | < 1
Cc1ccc(-n2nc(C3CN(Cc4ccncc4)C3)cc2NC(=O)c2cnn3cccnc23)cc1 [Example 309, N-{1-(4-methylphenyl)-3-[1-(pyridin-4-ylmethyl)azetidin-3-yl]-1H-pyrazol-5-yl}pyrazolo[1,5-a]pyrimidine-3-carboxamide] | < 1
Cc1ccc(-n2nc(C3CN(Cc4cncnc4)C3)cc2NC(=O)c2cnn3cccnc23)cc1 [Example 310, N-{1-(4-methylphenyl)-3-[1-(pyrimidin-5-ylmethyl)azetidin-3-yl]-1H-pyrazol-5-yl}pyrazolo[1,5-a]pyrimidine-3-carboxamide] | < 1
Cc1ccc(-n2nc(C3CN(Cc4cc(C)on4)C3)cc2NC(=O)c2cnn3cccnc23)cc1 [Example 311, N-[3-{1-[(5-methylisoxazol-3-yl)methyl]azetidin-3-yl]-1-(4-methylphenyl)-1H-pyrazol-5-yl}pyrazolo[1,5-a]pyrimidine-3-carboxamide] | < 1
Cc1ccc(-n2nc(C3CN(Cc4ncco4)C3)cc2NC(=O)c2cnn3cccnc23)cc1 [Example 316, N-{1-(4-methylphenyl)-3-[1-(1,3-oxazol-2-ylmethyl)azetidin-3-yl]-1H-pyrazol-5-yl}pyrazolo[1,5-a]pyrimidine-3-carboxamide] | < 1
COc1ncc(CN2CC(c3cc(NC(=O)c4cnn5cccnc45)n(-c4ccc(C)cc4)n3)C2)cn1 [Example 317, N-[3-{1-[(2-methoxypyrimidin-5-yl)methyl]azetidin-3-yl}-1-(4-methylphenyl)-1H-pyrazol-5-yl]pyrazolo[1,5-a]pyrimidine-3-carboxamide] | < 1
Cc1ccc(-n2nc(C3CN(Cc4cocn4)C3)cc2NC(=O)c2cnn3cccnc23)cc1 [Example 318, N-{1-(4-methylphenyl)-3-[1-(1,3-oxazol-4-ylmethyl)azetidin-3-yl]-1H-pyrazol-5-yl}pyrazolo[1,5-a]pyrimidine-3-carboxamide] | < 1

The remaining lines, values ahead:

IC50 [µM] | SMILES
< 1 | Cc1ccc(-n2nc(C3CCCN(Cc4cscn4)C3)cc2NC(=O)c2cnn3cccnc23)cc1 (stereo not shown) [Example 288, N-{1-(4-methylphenyl)-3-[1-(1,3-thiazol-4-ylmethyl)piperidin-3-yl]-1H-pyrazol-5-yl}pyrazolo[1,5-a]pyrimidine-3-carboxamide]
< 1 | Cc1ccc(-n2nc(C3CCCN(CC4CC4)C3)cc2NC(=O)c2cnn3cccnc23)cc1 (stereo not shown) [Example 297, N-{3-[1-(cyclopropylmethyl)piperidin-3-yl]-1-(4-methylphenyl)-1H-pyrazol-5-yl}pyrazolo[1,5-a]pyrimidine-3-carboxamide]
< 1 | Cc1ccc(-n2nc(C3CCCN(Cc4nccs4)C3)cc2NC(=O)c2cnn3cccnc23)cc1 (stereo not shown) [Example 298, N-{1-(4-methylphenyl)-3-[1-(1,3-thiazol-2-ylmethyl)piperidin-3-yl]-1H-pyrazol-5-yl}pyrazolo[1,5-a]pyrimidine-3-carboxamide]
